Test results taken from US12403130B2, “Pharmaceutical combinations for treating cancer” (Purdue Pharmaceutical Products L.P., priority 2014, dated 2025).
Where two headings read alike, the source gives them in different places.

Columns and labels:
[1] = test system: Vk12653 transplant model of relapsed/refractory multiple myeloma; assay: Vk12653 transplant model of relapsed/refractory multiple myeloma; format: in vivo; details: very aggressive, multi-drug resistant model
[2] = test system: Vk*MYC multiple myeloma; assay: Vk*MYC mouse model of multiple myeloma; format: in vivo; details: mice receiving only two doses, one week apart
Description: A genetic rearrangement of the MYC locus, resulting in dysregulated expression of MYC, is the most common mutation in human multiple myeloma. The genetically engineered Vk*MYC mouse model is based on dysregulation of MYC, and has been extensively validated as a clinically and biologically faithful model of untreated multiple myeloma. Nine drugs or classes of drugs (DNA alkylators, glucocorticoids, proteasome inhibitors, IMiDs, nab-paclitaxel, histone deacetylase inhibitors, TACI-Ig, perifosine and SNS-032, a CDK2, 7, 9 inhibitor) have been previously reported with more than a 20% partial response rate in Vk*MYC MM. Among those, the first five also have greater than 20% PR in patients with multiple myeloma for a positive predictive value of 56%.

[3] = test system: U251MG mouse xenograft model; assay: U251MG subcutaneously inoculated xenograft, time to progression; format: in vivo
Method: (§1) Subcutaneously Inoculated Xenografts
(§2) • Vehicle (control) • Radiotherapy (2Gy/5 consecutive days) • Temozolamide (16 mg/Kg for 5 consecutive days, po) • Temozolamide+radiotherapy • EDO-S101 (60 mg/Kg at day 1, 8 and 15 every 28 days, iv) • EDO-S101+radiotherapy

[4] = test system: T98G glioblastoma cell line; assay: IC50 against glioblastoma cell line T98G; format: cell-based
[5] = test system: U87G glioblastoma cell line; assay: IC50 against glioblastoma cell line U87G; format: cell-based
[6] = test system: U87MG mouse xenograft model; assay: U87MG subcutaneously inoculated xenograft, time to progression; format: in vivo
Method: as §1, §2

[7] = test system: T98G, U251MG and U87MG glioblastoma cell lines; assay: Radiotherapy and EDO-S101 against glioblastoma cell lines in vitro, surviving fraction; format: cell-based; details: radiotherapy in combination with EDO-S101 (5 μM or 10 μM) compared to radiotherapy alone
Method: FIG. 15 is a plot of % surviving fraction of in vitro T98G, U251MG and U87MG glioblastoma cell lines against dose of radiotherapy (Gy) in combination with two different concentrations of the compound of formula I (EDO-S101) against a control with radiotherapy alone.

[8] = test system: U251MG glioblastoma cell line; assay: IC50 against glioblastoma cell line U251MG; format: cell-based
[9] = test system: multiple myeloma cell lines; details: WO-A-2010/085377; in vitro; cited from earlier work
[10] = combination with radiotherapy (2Gy/5 consecutive days), temozolamide 16 mg/Kg 5 consecutive days po, EDO-S101 60 mg/Kg day 1, 8, 15 iv
[11] = drug alone, EDO-S101 60 mg/Kg at day 1, 8 and 15 every 28 days, iv
[12] = unit not given for temozolamide

SMILES	single agent activity [1]	duration of response [2]	rate of response [2]	time to progression of the tumours [3, 10]	time to progression of the tumours [3, 11]	IC50 ([4]; Homo sapiens)	IC50 [5]	time to progression of the tumours [6, 10]	time to progression of the tumours [6, 11]	% survival rate for the glioblastoma cells (FIG. 15) [7]	IC50 ([8]; Homo sapiens, U-251)	activity relative to the activity shown by bendamustin [9]	IC50 [4]	IC50 [8]	time to progression of the tumours ([3]; mouse, in vivo)	IC50 [4, 12]	IC50 [5, 12]	time to progression of the tumours ([6]; mouse, in vivo)	IC50 [8, 12]
Cn1c(CCCCCCC(=O)NO)nc2cc(N(CCCl)CCCl)ccc21 [EDO-S101]	single agent activity	more than three months	high rate of response	over 50 days	over 50 days	7.7 µM	1.36 µM	over 50 days	40 days	considerably reduced	6.6 µM	35-100 ×	–	–	–	–	–	–	–
Cn1c(CCCC(=O)O)nc2cc(N(CCCl)CCCl)ccc21 [bendamustin]	–	–	–	–	–	–	50 µM	–	–	–	–	–	52 µM	30 µM	–	–	–	–	–
Cn1nnc2c(C(N)=O)ncn2c1=O [temozolamide]	–	–	–	–	–	–	–	–	–	–	–	–	–	–	42 days	> 100 µM	20 µM	35 days	20 µM
